# Results as given in patent publication US7829560B2, “1,4-disubstituted naphthalenes as inhibitors of P38 MAP kinase” (Arqule, Inc., priority 2004, dated 2010).
# Values joined by “and” are separate entries in the source; they are usually repeats but may differ in a detail not shown here. Equal entries are not always repeated.
# Target: T1, p38α (Homo sapiens, UniProt Q16539)
# T1 construct: p38 MAP Kinases are recombinant human full-length proteins with an amino-terminal GST fusion; GST (N); purchased Upstate Biotechnology Inc; host or cells: E. coli
# Assay: p38 MAP Kinase assay: inhibition of ATF2 phosphorylation, ELISA
# Assay type: biochemical
# Details: for inhibition at 10 µM: substrate ATF2, read-out: [ENZ] P38 ALPHA, PCT INH, ELISA (10 uM;ATF2) (Percent); for IC50: ATF2 phosphorylation, read-out: [ENZ] P38 ALPHA, IC50, ELISA
# Text: Compounds of the invention are screened for the ability to inhibit ATF2 phosphorylation by p38 MAP Kinase in vitro. The ability of compounds to inhibit ATF2 phosphorylation in this in vitro assay is correlated with the inhibition of p38 MAP Kinase and TNFα expression in vivo, and is therefore an indicator of potential in vivo therapeutic activity (Raingeaud, J., et al, J. Biol. Chem., 270: 7420-7426, 1995, Brinkman, M. N., et al, J. Biol. Chem. 274: 30882-30886, 1999 and Fuchs, S. Y. et al, J. Biol. Chem. 275: 12560-12564, 2000).
# Materials: All kinases and the substrate ATF2 are acquired from Upstate Biotechnology Inc. p38 MAP Kinases are recombinant human full-length proteins with an amino-terminal GST fusion, expressed in and purified from E. coli. ATF2 is a GST fusion protein containing amino acids 19-96 of human ATF2 expressed in E. coli. All proteins are aliquoted and stored at −80° C.
# Methods: p38 MAP Kinase assays are performed using an assay buffer containing 25 mM HEPES, pH 7.5, 10 mM MgCl2, 2 mM DTT, 20 mM β-glycerophosphate, 0.1 mM Na3VO4, 40 μM ATP and 1.25 μM of ATF2 and in the absence or presence of 1% human serum albumin, Method I and II, respectively, with 0.4-6 ng of protein depending on the kinase used. Compounds are serially diluted in DMSO and 2 μL of test compound at 25× final concentration is used. The vehicle control receives DMSO only. Test compounds are pre-incubated with 20 μl of enzyme in kinase buffer (25 mM HEPES, pH 7.5, 10 mM MgCl2, 2 mM DTT, 20 mM β-glycerophosphate, 0.1 mM Na3VO4 in the absence or presence of 1% human serum albumin, Method I and II, respectively) at room temperature for 15 minutes. […] The reactions are incubated for 30 minutes at 37° C. and terminated by the addition of 18 μl of 200 mM EDTA. An ELISA method (I or II) is used to measure the phosphorylation of ATF2 at Thr 69. Method I: 96-well high binding plates (Corning 3369) are coated with 50 μl of kinase reaction for 1 hour at 37° C. The coated plates are washed with 200 μl washing buffer (25 mM Tris HCl, pH 8.3, 192 mM glycine, 0.1% SDS and 0.05% Tween-20) three times. The plates are then washed three times with SuperBlock in TBS (Pierce, 37535). After blocking, plates are incubated with 50 μl of rabbit anti-phospho-ATF2 antibody (Cell Signaling, 9221L, 1:500) for 30 minutes at 37° C. Plates are washed three times with washing buffer prior to incubation with 50 μl HRP-conjugated goat anti-rabbit antibody (Cell Signaling, 7074, 1:500) for 30 minutes at 37° C. Plates are then washed three times with washing buffer before incubation with 50 μl of Ultra TMB-ELISA (Pierce, 34028) for 8 minutes at room temperature. Finally, 50 ul of phosphoric acid (1 M) is added to stop reactions and plate absorbance is read at 450 nm on a SpectraMax 250 plate reader. Method II: 96-well high binding plates (Corning 3369) are coated with 400 ng of monoclonal antibody against GST-tag (Cell signaling) in 100 μl containing sodium borate (pH 8.3) for 90 minutes at 37° C. The plates are washed with 200 μl washing buffer (25 mM Tris HCl, pH 7.2, 150 mM NaCl and Tween-20) three times and blocked with 200 μl of 5% nonfat milk for 30 minutes at room temperature. The plates are washed three times with washing buffer, 50 μl of stopped kinase reaction are added to each well and incubated for 80 minutes at 37° C. The plates are washed three times with 200 μl washing buffer, and the plates are incubated with 50 μl of rabbit anti-phospho-ATF2 antibody (Cell Signaling, 9221L, 1:500) for 30 minutes at 37° C. Plates are washed three times with washing buffer prior to incubation with 50 μl HRP-conjugated goat anti-rabbit antibody (Cell Signaling, 7074, 1:500) for 30 minutes at 37° C. Plates are washed three times with washing buffer before incubation with 50 μl of Ultra TMB-ELISA (Pierce, 34028) for 25 minutes at room temperature. Finally, 50 μl of phosphoric acid (1 M) is added to stop reactions and plate absorbance is read at 450 nm on a SpectraMax 250 plate reader. […]
# T1 sequence (Q16539 whole entry, the tested form may be a part): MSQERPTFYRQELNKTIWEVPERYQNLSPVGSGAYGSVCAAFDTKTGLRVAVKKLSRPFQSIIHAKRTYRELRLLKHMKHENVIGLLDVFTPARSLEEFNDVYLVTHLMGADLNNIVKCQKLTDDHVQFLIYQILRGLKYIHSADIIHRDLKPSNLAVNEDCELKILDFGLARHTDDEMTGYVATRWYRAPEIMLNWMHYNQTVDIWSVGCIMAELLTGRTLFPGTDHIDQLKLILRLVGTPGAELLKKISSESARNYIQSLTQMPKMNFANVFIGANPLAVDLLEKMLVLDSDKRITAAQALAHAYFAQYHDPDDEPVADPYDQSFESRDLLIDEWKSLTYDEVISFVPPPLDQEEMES
SMILES,inhibition at 10 µM,IC50
CC(C)c1cc(C(=O)Nc2ccc(OCCN3CCOCC3)c3ccccc23)c(O)c(C(C)C)c1 [Compound B76],0%,
O=C(Nc1ccc(OCCN2CCOCC2)c2ccccc12)c1cccc(-c2ccccc2Oc2ccccc2)c1 [Compound B115],10%,
CCCCc1ccc(-c2cccc(C(=O)Nc3ccc(OCCN4CCOCC4)c4ccccc34)c2)cc1 [Compound B117],4%,
O=C(Nc1ccc(OCCN2CCCCC2)c2ccccc12)c1ccc(CN2CCS(=O)(=O)CC2)cc1 [Compound B14],6%,
CC1CCCN1c1cccc(C(=O)Nc2ccc(OCCN3CCOCC3)c3ccccc23)n1 (stereo not shown) [Compound B144],17%,
CCN(C)c1cccc(C(=O)Nc2ccc(OCCN3CCOCC3)c3ccccc23)n1 [Compound B148],15.5%,
CCN(C)c1cc(C(=O)Nc2ccc(OCCN3CCOCC3)c3ccccc23)cc(C)n1 [Compound B157],8%,
CN1CCN(CCOc2ccc(NC(=O)c3ccc(-n4ccc(C(F)(F)F)n4)cc3)c3ccccc23)CC1 [Compound B9],21%,
O=C(Nc1ccc(OCCN2CCOCC2)c2ccccc12)c1cccc(N2CCc3ccccc3C2)c1 [Compound B168],36%,
O=C(Nc1ccc(OCCN2CCOCC2)c2ccccc12)c1ccnc(N2CCC(N3CCCCC3)CC2)c1 [Compound B129],19.5%,
O=C(Nc1ccc(OCCN2CCOCC2)c2ccccc12)c1cccc(N2CCC(N3CCCCC3)CC2)n1 [Compound B70],14%,
O=C(Nc1ccc(OCCN2CCOCC2)c2ccccc12)c1cccc(-c2cc(F)cc(F)c2)c1 [Compound B103],68%,1.63 µM
COc1ccc(Cl)cc1-c1cccc(C(=O)Nc2ccc(OCCN3CCOCC3)c3ccccc23)c1 [Compound B111],50%,5.06 µM
O=C(Nc1ccc(OCCN2CCOCC2)c2ccccc12)c1cccc(N2CCC(c3ccccc3)CC2)n1 [Compound B72],0%,
Cc1ccc(-c2cccc(C(=O)Nc3ccc(OCCN4CCOCC4)c4ccccc34)c2)c2ccccc12 [Compound B114],11.3%,
Cc1cc(C(=O)Nc2ccc(OCCN3CCOCC3)c3ccccc23)cc(N2CCSC2)n1 [Compound B151],0%,
CCc1ccc(-c2cccc(C(=O)Nc3ccc(OCCN4CCOCC4)c4ccccc34)c2)cc1 [Compound B102],21%,> 100 µM
CC1CCN(c2cccc(C(=O)Nc3ccc(OCCN4CCOCC4)c4ccccc34)n2)CC1 [Compound B143],32%,> 100 µM
O=C(Nc1ccc(OCCN2CCOCC2)c2ccccc12)c1cccc(N2CCOCC2)n1 [Compound B134],20%,
O=C(Nc1ccc(OCCN2CCOCC2)c2ccccc12)c1cccc(C(F)(F)F)c1 [Compound B73],10%,
O=C(Nc1ccc(OCCN2CCOCC2)c2ccccc12)c1cc(C(F)(F)F)cc(C(F)(F)F)c1 [Compound B83],18%,
"O=C1CN(CCOc2ccc(NC(=O)c3cc(F)cc(N4CCCCC4)c3)c3ccccc23)CCN1 [Compound B164, 3-Fluoro-N-{4-[2-(3-oxo-piperazin-1-yl)-ethoxy]-naphthalen-1-yl}-5-piperidin-1-yl-benzamide]",83.5%,0.436 µM and 0.306 µM
O=C(Nc1ccc(OCCN2CCOCC2)c2ccccc12)c1cccc(N2CCC(Cc3ccccc3)CC2)n1 [Compound B140],4%,
O=C(Nc1ccc(OCCN2CCSCC2)c2ccccc12)c1ccc(-n2cccn2)cc1 [Compound B11],24%,
O=C(Nc1ccc(OCCN2CCOCC2)c2ccccc12)c1cc(F)cc(C(F)(F)F)c1 [Compound B77],28%,
"O=C(Nc1ccc(OCCN2CCOCC2)c2ccccc12)c1cccc(-c2ccc(OC(F)(F)F)cc2)c1 [Compound B87, 4′-Trifluoromethoxy-biphenyl-3-carboxylic acid [4-(2-morpholin-4-yl-ethoxy)-naphthalen-1-yl]-amide]",29%,> 100 µM
O=C(Nc1ccc(OCCN2CCOCC2)c2ccccc12)c1cccc(N2CCSC2)n1 [Compound B138],-36%,
O=C(Nc1ccc(OCCN2CCSCC2)c2ccccc12)c1ccc(CN2CCS(=O)(=O)CC2)cc1 [Compound B17],30.5%,
CSc1ccccc1-c1cccc(C(=O)Nc2ccc(OCCN3CCOCC3)c3ccccc23)c1 [Compound B116],54%,2.74 µM
O=C(Nc1ccc(OCCN2CCOCC2)c2ccccc12)C1=CC=CC(C(F)(F)F)C1Cl (stereo not shown) [Compound B81],6%,

# Next, values leading:
inhibition at 10 µM,IC50,SMILES
19.5%,,CN1CCN(CCOc2ccc(NC(=O)c3ccnc(N4CCOCC4)c3)c3ccccc23)CC1 [Compound B21]
13%,,CC1CC(C)CN(c2cccc(C(=O)Nc3ccc(OCCN4CCOCC4)c4ccccc34)n2)C1 (stereo not shown) [Compound B141]
39%,> 100 µM,O=C(Nc1ccc(OCCN2CCOCC2)c2ccccc12)c1cccc(-c2cc(Cl)cc(Cl)c2Cl)c1 [Compound B120]
,> 10 µM,O=C(Nc1ccc(OCCN2C(=O)CCC2=O)c2ccccc12)c1cc(F)cc(N2CCOCC2)c1 [Compound B221]
7%,,O=C(Nc1ccc(OCCN2CCOCC2)c2ccccc12)c1ccnc(N2CCC(Cc3ccccc3)CC2)c1 [Compound B124]
10.5%,,O=C(Nc1ccc(OCCN2CCOCC2)c2ccccc12)c1ccc(CN2CCS(=O)(=O)CC2)cc1 [Compound B18]
36.5%,,C[C@@H]1CN(CCOc2ccc(NC(=O)c3ccnc(Cl)c3)c3ccccc23)C[C@H](C)O1 [Compound B8]
52%,4.07 µM,CCOc1ccccc1-c1cccc(C(=O)Nc2ccc(OCCN3CCOCC3)c3ccccc23)c1 [Compound B109]
12.5%,,O=C(Nc1ccc(OCCN2CCCCC2)c2ccccc12)c1ccc(-n2ccc(C(F)(F)F)n2)cc1 [Compound B10]
12.5%,,O=C(Nc1ccc(OCCN2CCCCC2)c2ccccc12)c1ccnc(N2CCOCC2)c1 [Compound B22]
11.5%,,CN1CCN(CCOc2ccc(NC(=O)c3ccc(CN4CCS(=O)(=O)CC4)cc3)c3ccccc23)CC1 [Compound B13]
34%,,CC1CCCN(c2cccc(C(=O)Nc3ccc(OCCN4CCOCC4)c4ccccc34)n2)C1 (stereo not shown) [Compound B69]
29%,,O=C(Nc1ccc(OCCN2CCOCC2)c2ccccc12)c1cccc2ccccc12 [Compound B89]
16.5%,,C[C@@H]1CN(CCOc2ccc(NC(=O)c3ccc(-n4cccn4)cc3)c3ccccc23)C[C@H](C)O1 [Compound B12]
7.5%,,Cc1cccc(C)c1N1CCN(c2cccc(C(=O)Nc3ccc(OCCN4CCOCC4)c4ccccc34)n2)CC1 [Compound B146]
,12.8 µM,O=C(Nc1ccc(OCc2ccco2)c2ccccc12)c1cc(F)cc(N2CCOCC2)c1 [Compound B223]
